Reference: US20240140931A1, “TRICYCLIC COMPOUNDS AND USES THEREOF” (HUTCHMED LIMITED, priority 2021, published 2024)

Legend:
[1] = test system: pERK1/2 (Thr202/Tyr204) in Miapaca2 cells; experiment: Assay of intracellular pERK1/2 (Thr202/Tyr204) phosphorylation; format: cell-based; conditions: pERK1/2 (Thr202/Tyr204) HTRF
Procedure: Example 3 Assay of Intracellular pERK1/2 (Thr202/Tyr204) Phosphorylation
1. Reagents and Materials • pERK1/2 (Thr202/Tyr204) HTRF kit: Cisbio, Cat #64ERKPEH; • Cell line: Miapaca2, ATCC, CRL-1420; • OptiPlate™-384-well plate: PerkinElmer, Cat #6007299; • 96-well plate: Corning, Cat #353072; • Instrument: EnVision2104, PerkinElmer.
2. Preparation of Reaction Solutions • The test compound was dissolved in DMSO and diluted with DMSO to 600.0 μM, and the compound was further 3-fold diluted with DMSO to: 600.0, 200.0, 66.7, 22.2, 7.4, 2.5, 0.82 and 0.27 μM. Then 10 μL of the compound at different dilution concentrations was added to 190 μL of a DMEM medium to prepare a 10× test compound, wherein DMSO was at the concentration of 5% (DMSO was at the final concentration of 0.5%). • 1× cell lysis buffer: 4× cell lysis stock solution (provided by the kit) was diluted 4-fold with deionized water, and then 1% 100× blocking stock solution (provided by the kit) was added thereto. • pERK1/2 detection solution (prepared just before use): the pERK1/2 d2 antibody (provided by the kit) and pERK1/2 Cryptate antibody (provided by the kit) were diluted with the detection solution (provided by the kit) at a ratio of 1:1:38.
3. Experimental Steps • Miapaca2 cells were inoculated into a 96-well plate at a density of 10000 cells/well at 90 μL/well and cultured in a cell incubator at 5% CO2 and 37° C. overnight. • 10 μL of 10× test compound was added to the 90 μL cell culture 96-well plate; to the cell positive control well was added 10 μL of 5% DMSO culture solution; and the plate was cultured in a cell incubator at 5% CO2 and 37° C. for 2 hours. • The medium in the 96-well plate was removed; 50 μL of 1× cell lysis buffer was added to each well; the plate was placed in a microplate shaker; and lysis under shaking was carried out at 900 rpm at room temperature for 1 hour. • 16 μL of the lysis buffer in the 96-well plate was taken and transferred to a 384-well plate, and centrifugation was carried out at 1000 rpm for 30 seconds; then 4 μL of pERK1/2 detection solution was added to each well and centrifugation was carried out at 1000 rpm for 30 seconds; and the 384-well plate was sealed with a sealing membrane and incubated at 25° C. on a low-speed shaker (100 rpm) in the dark for 2 hours. • The fluorescence value (relative fluorescence units, RFU) of each well was detected on EnVision2104 (emission 1: 665 nm, emission 2: 615 nm).
wherein • the fluorescence ratio of compound well refers to the fluorescence ratio of the well containing the test compounds; • the fluorescence ratio of negative control well refers to the fluorescence ratio of the background containing the cell lysis buffer and no Miapaca2 cells; • the fluorescence ratio of positive control well refers to the fluorescence ratio of the well containing 0.5% DMSO and Miapaca2 cells.
(§1) IC50 values were calculated following formula 205: y=A+((B−A)/(1+((C/X)^D))), by using the XL-Fit 5.0 software.

[2] = biological target: Human full-length SHP2 recombinant protein (Homo sapiens (Human), UniProt Q06124); experiment: Assay of full-length SHP2 phosphatase activity; format: biochemical; conditions: DiFMUP substrate, with activating peptide
Procedure: Example 2 Assay of Full-Length SHP2 Phosphatase Activity
1. Reagents and Materials • Human full-length SHP2 recombinant protein: BPS Bioscience, Cat #79018; • SHP2 substrate DiFMUP (1 mM): BPS Bioscience, Cat #79769; • SHP2 activating peptide (100 μM): BPS Bioscience, Cat #79319-2; • DTT: Merck, Cat #DTT-RO; • 384-well plate: Corning, Cat #3575; • 96-well plate: Thermo Fisher Scientific, Cat #249952; • Instrument: EnVision 2104, PerkinElmer.
2. Preparation of Reaction Solutions
The test compound was dissolved in DMSO and diluted with DMSO to 100.0 μM, and the compound was further 3-fold diluted with DMSO to: 100.00, 33.33, 11.11, 3.70, 1.23, 0.41, 0.14 and 0.05 μM.
3. Experimental Steps • To the corresponding wells of the 384-well plate was added 2.5 μL of 4× test compound or 2.5 μL of 4% DMSO solution, and centrifugation was carried out at 1000 rpm for 30 seconds. • To the test compound well and positive control well was added 2.5 μL of 4× mixed solution of SHP2 enzyme/activating peptide while to the negative control well was added 2.5 μL of 1× enzymatic reaction buffer; centrifugation was carried out at 1000 rpm for 30 seconds and incubation was carried out at room temperature for 30 minutes. • To each well was added 5 μL of 2×DiFMUP substrate to initiate the enzymatic reaction, then the plate was transiently oscillated and centrifuged at 1000 rpm for 30 seconds, and the 384-well plate was sealed with a sealing membrane and incubated at 25° C. on a low-speed shaker (100 rpm) in the dark for 60 minutes. • The fluorescence value (relative fluorescence units, RFU) of each well was detected on EnVision2104 (excitation: 355 nm, emission: 460 nm).
wherein • the RFU of compound well refers to the fluorescence reading at 460 nm of the well containing the test compounds; • the RFU of negative control well refers to the fluorescence reading at 460 nm of the background well containing 1% DMSO and the enzymatic reaction buffer; • the RFU of positive control well refers to the fluorescence reading at 460 nm of the well containing 1% DMSO and the mixed solution of SHP2 enzyme/activating peptide.
as §1

Structure (SMILES)	IC50 ([1]; Homo sapiens, MIA PaCa-2, 2 h) [nM]	IC50 [2] [nM]	IC50 ([1]; 2 hours) [nM]
C#Cc1ccc2c(c1)CC1(CCN(c3ncc(Sc4ccnc(N)n4)c4nccn34)CC1)[C@@H]2N [Compound 9]	38	4	
C#Cc1ccc2c(c1)CC1(CCN(c3ncc(Sc4ccnc(NC5CCC5)c4Cl)c4nccn34)CC1)[C@@H]2N [Compound 10]	220	35	
C#Cc1ccc2c(c1)[C@@H](N)C1(CCN(c3cc(=O)n(-c4ccc(F)c(F)c4)c(C)n3)CC1)C2 [Compound 15]	87	8	
C#Cc1ccc2c(c1)CC1(CCN(c3nc(N)c(-c4cn(C)c5ncccc45)c4nccn34)CC1)[C@@H]2N [Compound 25]	151	12	
C#Cc1ccc2c(c1)CC1(CCN(c3cc(=O)n(-c4cccc(Cl)c4)c(C)n3)CC1)[C@@H]2N [Compound 26]	> 3000	158	
C#Cc1ccc2c(c1)[C@@H](N)C1(CCN(c3ncc(Sc4ccnc(N)n4)c4nccn34)CC1)C2 [Compound 27]	11	1	
C#Cc1ccc2c(c1)[C@@H](N)C1(CCN(c3cc(=O)n(-c4ccc(F)c(OC)c4)c(C)n3)CC1)C2 [Compound 29]	489	25	
C#Cc1ccc2c(c1)[C@@H](N)C1(CCN(c3cc(=O)n(-c4c(F)cccc4F)c(C)n3)CC1)C2 [Compound 35]	274	17	
COCC#Cc1ccc2c(c1)[C@@H](N)C1(CCN(c3ncc(Sc4ccnc(N)c4Cl)c4nccn34)CC1)C2 [Compound 40]	6	2	
C#Cc1ccc2c(c1)[C@@H](N)C1(CCN(c3cc(=O)n(-c4ccc(F)cc4F)c(C)n3)CC1)C2 [Compound 41]	115	21	
C#Cc1ccc2c(c1)[C@@H](N)C1(CCN(c3cc(=O)n(-c4cccc(OC)c4)c(C)n3)CC1)C2 [Compound 43]	117	6	
C#Cc1ccc2c(c1)[C@@H](N)C1(CCN(c3cc(=O)n(-c4cccc(Cl)c4Cl)c(C)n3)CC1)O2 [Compound 47]	115	11	
C#Cc1ccc2c(c1)[C@@H](N)C1(CCN(c3cc(=O)n(-c4cccc(SC)c4)c(C)n3)CC1)C2 [Compound 53]	364	18	
C#Cc1ccc2c(c1)[C@@H](N)C1(CCN(c3nc(C)n(-c4ccc(F)cc4Cl)c(=O)c3C)CC1)C2 [Compound 54]		3	36
C#Cc1ccc2c(c1)[C@@H](N)C1(CCN(c3cc(=O)n(-c4cc(F)cc(F)c4)c(C)n3)CC1)C2 [Compound 55]	388	26	
C#Cc1ccc2c(c1)[C@@H](N)C1(CCN(c3cc(=O)n(-c4ccnc(Cl)c4)c(C)n3)CC1)C2 [Compound 60]	> 1000	13	
C#Cc1ccc2c(c1)[C@@H](N)C1(CCN(c3cc(=O)n(-c4cccc(Cl)c4Cl)c(C)n3)CC1)C2 [Compound 64]	891	184	

Next, values leading:

IC50 ([1]; Homo sapiens, MIA PaCa-2, 2 h) [nM]	IC50 [2] [nM]	IC50 ([1]; 2 hours) [nM]	Structure (SMILES)
	4	34	C#Cc1ccc2c(c1)[C@@H](N)C1(CCN(c3cc(=O)n(-c4cccc(Cl)c4F)c(C)n3)CC1)C2 [Compound 16]
203	18		C#Cc1ccc2c(c1)[C@@H](N)C1(CCN(c3cc(=O)n(-c4cccc(Cl)c4)c(C)n3)CC1)C2 [Compound 17]
8	2		COCC#Cc1ccc2c(c1)[C@@H](N)C1(CCN(c3cc(=O)n(-c4cccc(Cl)c4Cl)c(C)n3)CC1)C2 [Compound 30]
37	5		Cc1nc(N2CCC3(CC2)Cc2ccc(C#CCOC(C)(C)C)cc2[C@H]3N)cc(=O)n1-c1cccc(Cl)c1Cl [Compound 31]
6	1		Cc1nc(N2CCC3(CC2)Cc2ccc(C#CCO)cc2[C@H]3N)cc(=O)n1-c1cccc(Cl)c1Cl [Compound 32]
	4	244	C#Cc1ccc2c(c1)[C@@H](N)C1(CCN(c3cc(=O)n(-c4cccc(C#N)c4Cl)c(C)n3)CC1)C2 [Compound 34]
33	6		COCC#Cc1ccc2c(c1)[C@@H](N)C1(CCN(c3nc(C)n(-c4cccc(Cl)c4Cl)c(=O)c3C)CC1)C2 [Compound 36]
599	44		Cc1nc(N2CCC3(CC2)Cc2ccc(C#C[C@@H](C)O)cc2[C@H]3N)cc(=O)n1-c1cccc(Cl)c1Cl [Compound 37]
343	46		Cc1nc(N2CCC3(CC2)Cc2ccc(C#C[C@H](C)O)cc2[C@H]3N)cc(=O)n1-c1cccc(Cl)c1Cl [Compound 38]
294	21		C#Cc1ccc2c(c1)[C@@H](N)C1(CCN(c3cc(=O)n(-c4cccc5[nH]ncc45)c(C)n3)CC1)C2 [Compound 39]
133	6		C#Cc1ccc2c(c1)[C@@H](N)C1(CCN(c3cc(=O)n(-c4ccccc4Cl)c(C)n3)CC1)C2 [Compound 42, (S)-6-(1-amino-6-ethynyl-1,3-dihydrospiro[indene-2,4′-piperidin]-1′-yl)-3-(2-chlorophenyl)-2-methylpyrimidin-4(3H)-one]
415	60		C#Cc1ccc2c(c1)[C@@H](N)C1(CCN(c3cc(=O)n(-c4cc(OC)ccc4Cl)c(C)n3)CC1)C2 [Compound 44]
261	11		C#Cc1ccc2c(c1)[C@@H](N)C1(CCN(c3cc(=O)n(-c4ccc(F)c(Cl)c4)c(C)n3)CC1)C2 [Compound 45]
648	96		C#Cc1ccc2c(c1)[C@@H](N)C1(CCN(c3cc(=O)n(-c4ccc(OCC)c(Cl)c4)c(C)n3)CC1)C2 [Compound 46]
78	3		C#Cc1ccc2c(c1)[C@@H](N)C1(CCN(c3cc(=O)n(-c4cccc(F)c4Cl)c(C)n3)CC1)C2 [Compound 61]
105	5		C#Cc1ccc2c(c1)[C@@H](N)C1(CCN(c3cc(=O)n(-c4cccc(OCC)c4Cl)c(C)n3)CC1)C2 [Compound 62]
177	4		Cc1nc(N2CCC3(CC2)Cc2ccc(Nc4cnn(C)c4)cc2[C@H]3N)cc(=O)n1-c1cccc(Cl)c1Cl [Compound 63]
39	1		CNCC#Cc1ccc2c(c1)[C@@H](N)C1(CCN(c3cc(=O)n(-c4cccc(Cl)c4Cl)c(C)n3)CC1)C2 [Compound 67]
